Laboratory results published in PMC3270411 (Chemistry & biology, 2012).
Where two headings read alike, the source gives them in different places.

Key:
Format in all cases: cell-based
[1] = molecular target: MARK2 (Homo sapiens, UniProt Q7KZI7); assay: KiNativ cellular kinase profiling; conditions: for Percent inhibition of kinase labeling by ATP-biotin: A375 cells, 1 μM, 3 hours, MARK2, labeling site Lys1; for inhibition at 1 µM: A-375, read-out: Percent inhibition of kinase labeling by ATP-biotin
[2] = tested on: AurA,AurB,AurC; assay: KiNativ cellular kinase profiling; conditions: A375 cells, 1 μM, 3 hours, labeling site ATP Loop
[3] = molecular target: T1, AurA (Homo sapiens, UniProt O14965); assay: KiNativ cellular kinase profiling; conditions: for Percent inhibition of kinase labeling by ATP-biotin: A375 cells, 1 μM, 3 hours, AurA, labeling site Lys2; for inhibition at 1 µM: A-375, read-out: Percent inhibition of kinase labeling by ATP-biotin
T1 sequence (O14965 1-403): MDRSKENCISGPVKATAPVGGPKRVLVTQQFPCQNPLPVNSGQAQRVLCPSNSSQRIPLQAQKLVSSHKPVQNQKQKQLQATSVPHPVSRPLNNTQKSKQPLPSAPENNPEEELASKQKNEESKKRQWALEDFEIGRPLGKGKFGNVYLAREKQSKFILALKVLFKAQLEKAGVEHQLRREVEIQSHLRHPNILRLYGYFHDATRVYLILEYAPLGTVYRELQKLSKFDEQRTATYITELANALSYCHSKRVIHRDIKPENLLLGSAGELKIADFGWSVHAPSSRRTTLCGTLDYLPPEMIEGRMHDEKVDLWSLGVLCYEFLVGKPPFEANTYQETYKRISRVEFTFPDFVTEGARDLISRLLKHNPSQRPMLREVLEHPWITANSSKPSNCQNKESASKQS

[4] = molecular target: ROCK1 (Homo sapiens, UniProt Q13464); assay: KiNativ cellular kinase profiling; conditions: for Percent inhibition of kinase labeling by ATP-biotin: A375 cells, 1 μM, 3 hours, ROCK1, labeling site Other; for inhibition at 1 µM: A-375, read-out: Percent inhibition of kinase labeling by ATP-biotin
[5] = tested on: TAO1,TAO3; assay: KiNativ cellular kinase profiling; conditions: A375 cells, 1 μM, 3 hours; TAO1,TAO3, labeling site Lys2
[6] = tested on: ROCK1,ROCK2; assay: KiNativ cellular kinase profiling; conditions: A375 cells, 1 μM, 3 hours; ROCK1,ROCK2, labeling site Lys2
[7] = tested on: c-Jun phosphorylation (phospho Ser73) in A375 cells
[8] = molecular target: PIP5K3 (Homo sapiens, UniProt Q9Y2I7); assay: KiNativ cellular kinase profiling; conditions: for Percent inhibition of kinase labeling by ATP-biotin: A375 cells, 1 μM, 3 hours, PIP5K3, labeling site ATP; for inhibition at 1 µM: A-375, read-out: Percent inhibition of kinase labeling by ATP-biotin
[9] = molecular target: ZAK (Homo sapiens, UniProt Q9NYL2); assay: KiNativ cellular kinase profiling; conditions: for Percent inhibition of kinase labeling by ATP-biotin: A375 cells, 1 μM, 3 hours, ZAK, labeling site Lys1; for inhibition at 1 µM: A-375, read-out: Percent inhibition of kinase labeling by ATP-biotin
[10] = molecular target: BRAF (Homo sapiens, UniProt P15056); assay: KiNativ cellular kinase profiling; conditions: for Percent inhibition of kinase labeling by ATP-biotin: A375 cells, 1 μM, 3 hours, BRAF, labeling site Lys2; for inhibition at 1 µM: A-375, read-out: Percent inhibition of kinase labeling by ATP-biotin
[11] = tested on: JNK1,JNK2,JNK3; assay: KiNativ cellular kinase profiling; conditions: A375 cells, 1 μM, 3 hours; JNK1,JNK2,JNK3, labeling site Lys2
[12] = molecular target: GSK3A (Homo sapiens, UniProt P49840); assay: KiNativ cellular kinase profiling; conditions: for Percent inhibition of kinase labeling by ATP-biotin: A375 cells, 1 μM, 3 hours, GSK3A, labeling site Lys2; for inhibition at 1 µM: A-375, read-out: Percent inhibition of kinase labeling by ATP-biotin
[13] = molecular target: T2, PKD2 (Homo sapiens, UniProt Q9BZL6); assay: KiNativ cellular kinase profiling; conditions: for Percent inhibition of kinase labeling by ATP-biotin: A375 cells, 1 μM, 3 hours, PKD2, labeling site Lys1; for inhibition at 1 µM: A-375, read-out: Percent inhibition of kinase labeling by ATP-biotin
T2 sequence (Q9BZL6 1-878): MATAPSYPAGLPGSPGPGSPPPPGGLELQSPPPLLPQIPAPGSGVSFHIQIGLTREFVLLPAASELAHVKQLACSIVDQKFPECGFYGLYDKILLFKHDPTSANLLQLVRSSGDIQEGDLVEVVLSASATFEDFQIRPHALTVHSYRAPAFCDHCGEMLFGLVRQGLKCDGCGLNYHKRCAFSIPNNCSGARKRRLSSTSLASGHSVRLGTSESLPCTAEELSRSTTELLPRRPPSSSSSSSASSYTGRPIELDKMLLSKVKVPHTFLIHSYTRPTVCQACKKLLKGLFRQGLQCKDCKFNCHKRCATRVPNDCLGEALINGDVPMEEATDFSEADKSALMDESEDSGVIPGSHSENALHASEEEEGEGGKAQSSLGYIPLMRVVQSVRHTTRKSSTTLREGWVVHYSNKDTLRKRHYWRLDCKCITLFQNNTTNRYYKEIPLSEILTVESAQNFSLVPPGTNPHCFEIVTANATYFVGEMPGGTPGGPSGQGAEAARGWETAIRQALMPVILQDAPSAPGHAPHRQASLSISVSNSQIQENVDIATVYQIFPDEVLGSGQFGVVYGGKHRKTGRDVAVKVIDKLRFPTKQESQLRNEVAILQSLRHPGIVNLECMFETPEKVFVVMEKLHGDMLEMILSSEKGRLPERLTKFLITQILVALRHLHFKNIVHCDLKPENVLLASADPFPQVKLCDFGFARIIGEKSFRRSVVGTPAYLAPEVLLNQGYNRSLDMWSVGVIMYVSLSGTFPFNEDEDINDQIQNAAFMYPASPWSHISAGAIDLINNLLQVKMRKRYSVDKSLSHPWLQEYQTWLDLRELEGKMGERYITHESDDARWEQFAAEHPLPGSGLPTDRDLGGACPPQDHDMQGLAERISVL

[14] = molecular target: T3, PHKg2 (Homo sapiens, UniProt P15735); assay: KiNativ cellular kinase profiling; conditions: for Percent inhibition of kinase labeling by ATP-biotin: A375 cells, 1 μM, 3 hours, PHKg2, labeling site Lys1; for inhibition at 1 µM: A-375, read-out: Percent inhibition of kinase labeling by ATP-biotin
T3 sequence (P15735 1-406): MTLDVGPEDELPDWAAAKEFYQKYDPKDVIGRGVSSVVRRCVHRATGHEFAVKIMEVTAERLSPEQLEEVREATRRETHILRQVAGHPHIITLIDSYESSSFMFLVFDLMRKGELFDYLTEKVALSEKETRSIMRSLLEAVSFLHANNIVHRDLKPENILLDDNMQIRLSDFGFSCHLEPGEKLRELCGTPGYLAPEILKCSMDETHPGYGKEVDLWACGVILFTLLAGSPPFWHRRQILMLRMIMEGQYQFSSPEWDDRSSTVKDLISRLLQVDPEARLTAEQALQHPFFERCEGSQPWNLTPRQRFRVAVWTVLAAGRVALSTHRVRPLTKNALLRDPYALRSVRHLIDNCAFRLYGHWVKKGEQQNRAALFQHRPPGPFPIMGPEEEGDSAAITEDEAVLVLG

[15] = tested on: c-Jun phosphorylation and Erk, p38, JNK, Akt, Stat, NF-κB and Rsk pathway nodes; assay: microscopy-based cellular pathway profiling with phospho-specific antibodies; conditions: phospho-specific antibody microscopy
[16] = read-out: p-c-Jun EC50 (nM) A375, A375 cells, anisomycin stimulation, microscopy

Chain of GSK3A (P49840 whole entry): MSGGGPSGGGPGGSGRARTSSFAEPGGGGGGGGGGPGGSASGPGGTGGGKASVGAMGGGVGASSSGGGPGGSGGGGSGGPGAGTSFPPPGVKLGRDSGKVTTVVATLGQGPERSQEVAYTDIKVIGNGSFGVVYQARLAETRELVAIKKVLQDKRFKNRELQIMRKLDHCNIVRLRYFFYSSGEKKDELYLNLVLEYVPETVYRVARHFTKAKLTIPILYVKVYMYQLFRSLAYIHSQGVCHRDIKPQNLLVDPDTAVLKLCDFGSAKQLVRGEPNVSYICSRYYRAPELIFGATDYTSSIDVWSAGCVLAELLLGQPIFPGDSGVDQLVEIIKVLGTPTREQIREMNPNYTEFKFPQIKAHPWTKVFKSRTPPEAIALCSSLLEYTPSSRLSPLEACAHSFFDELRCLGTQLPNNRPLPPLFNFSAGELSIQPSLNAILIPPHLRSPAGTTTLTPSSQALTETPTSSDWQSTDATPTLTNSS
Chain of BRAF (P15056 whole entry): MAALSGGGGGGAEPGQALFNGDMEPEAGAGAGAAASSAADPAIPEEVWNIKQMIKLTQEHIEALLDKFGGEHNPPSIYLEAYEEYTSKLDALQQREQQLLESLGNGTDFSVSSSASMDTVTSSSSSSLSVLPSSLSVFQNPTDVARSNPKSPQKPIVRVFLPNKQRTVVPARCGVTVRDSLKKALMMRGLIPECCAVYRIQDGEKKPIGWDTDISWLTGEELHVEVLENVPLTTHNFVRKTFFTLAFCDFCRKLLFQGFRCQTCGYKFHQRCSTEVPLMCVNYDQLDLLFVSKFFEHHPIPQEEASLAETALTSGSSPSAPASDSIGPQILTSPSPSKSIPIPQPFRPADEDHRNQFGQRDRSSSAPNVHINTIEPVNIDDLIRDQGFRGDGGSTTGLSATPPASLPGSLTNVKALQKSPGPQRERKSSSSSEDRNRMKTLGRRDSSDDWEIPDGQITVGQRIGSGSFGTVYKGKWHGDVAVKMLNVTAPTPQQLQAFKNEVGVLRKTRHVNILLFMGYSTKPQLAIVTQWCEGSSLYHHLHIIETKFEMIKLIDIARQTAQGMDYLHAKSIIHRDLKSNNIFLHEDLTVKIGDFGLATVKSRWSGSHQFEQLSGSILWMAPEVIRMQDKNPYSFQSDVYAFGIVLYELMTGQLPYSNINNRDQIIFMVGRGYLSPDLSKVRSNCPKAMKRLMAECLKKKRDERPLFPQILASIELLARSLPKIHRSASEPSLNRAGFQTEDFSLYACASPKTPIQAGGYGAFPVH
Chain of ZAK (Q9NYL2 whole entry): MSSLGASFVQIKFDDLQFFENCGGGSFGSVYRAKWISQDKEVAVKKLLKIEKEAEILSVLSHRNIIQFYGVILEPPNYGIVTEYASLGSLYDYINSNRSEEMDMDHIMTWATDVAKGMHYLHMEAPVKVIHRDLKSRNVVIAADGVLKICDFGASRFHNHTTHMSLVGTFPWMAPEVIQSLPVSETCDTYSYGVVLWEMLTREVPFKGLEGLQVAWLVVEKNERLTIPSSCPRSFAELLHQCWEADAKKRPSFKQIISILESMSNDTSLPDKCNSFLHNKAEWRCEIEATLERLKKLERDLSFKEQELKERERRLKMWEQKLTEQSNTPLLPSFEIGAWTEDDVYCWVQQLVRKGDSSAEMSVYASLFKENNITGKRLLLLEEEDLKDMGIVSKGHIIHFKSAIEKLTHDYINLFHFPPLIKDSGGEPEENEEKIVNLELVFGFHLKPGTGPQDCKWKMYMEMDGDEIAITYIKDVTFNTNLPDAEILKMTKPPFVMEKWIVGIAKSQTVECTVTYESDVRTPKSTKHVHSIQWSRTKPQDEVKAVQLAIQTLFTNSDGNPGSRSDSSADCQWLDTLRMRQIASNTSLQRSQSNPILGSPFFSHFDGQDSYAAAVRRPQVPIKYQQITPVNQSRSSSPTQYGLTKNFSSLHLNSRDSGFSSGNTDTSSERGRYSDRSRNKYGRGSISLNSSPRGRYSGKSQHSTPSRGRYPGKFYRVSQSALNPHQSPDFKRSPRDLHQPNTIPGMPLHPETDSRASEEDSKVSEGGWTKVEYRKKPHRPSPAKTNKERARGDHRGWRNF
Chain of PIP5K3 (Q9Y2I7 whole entry): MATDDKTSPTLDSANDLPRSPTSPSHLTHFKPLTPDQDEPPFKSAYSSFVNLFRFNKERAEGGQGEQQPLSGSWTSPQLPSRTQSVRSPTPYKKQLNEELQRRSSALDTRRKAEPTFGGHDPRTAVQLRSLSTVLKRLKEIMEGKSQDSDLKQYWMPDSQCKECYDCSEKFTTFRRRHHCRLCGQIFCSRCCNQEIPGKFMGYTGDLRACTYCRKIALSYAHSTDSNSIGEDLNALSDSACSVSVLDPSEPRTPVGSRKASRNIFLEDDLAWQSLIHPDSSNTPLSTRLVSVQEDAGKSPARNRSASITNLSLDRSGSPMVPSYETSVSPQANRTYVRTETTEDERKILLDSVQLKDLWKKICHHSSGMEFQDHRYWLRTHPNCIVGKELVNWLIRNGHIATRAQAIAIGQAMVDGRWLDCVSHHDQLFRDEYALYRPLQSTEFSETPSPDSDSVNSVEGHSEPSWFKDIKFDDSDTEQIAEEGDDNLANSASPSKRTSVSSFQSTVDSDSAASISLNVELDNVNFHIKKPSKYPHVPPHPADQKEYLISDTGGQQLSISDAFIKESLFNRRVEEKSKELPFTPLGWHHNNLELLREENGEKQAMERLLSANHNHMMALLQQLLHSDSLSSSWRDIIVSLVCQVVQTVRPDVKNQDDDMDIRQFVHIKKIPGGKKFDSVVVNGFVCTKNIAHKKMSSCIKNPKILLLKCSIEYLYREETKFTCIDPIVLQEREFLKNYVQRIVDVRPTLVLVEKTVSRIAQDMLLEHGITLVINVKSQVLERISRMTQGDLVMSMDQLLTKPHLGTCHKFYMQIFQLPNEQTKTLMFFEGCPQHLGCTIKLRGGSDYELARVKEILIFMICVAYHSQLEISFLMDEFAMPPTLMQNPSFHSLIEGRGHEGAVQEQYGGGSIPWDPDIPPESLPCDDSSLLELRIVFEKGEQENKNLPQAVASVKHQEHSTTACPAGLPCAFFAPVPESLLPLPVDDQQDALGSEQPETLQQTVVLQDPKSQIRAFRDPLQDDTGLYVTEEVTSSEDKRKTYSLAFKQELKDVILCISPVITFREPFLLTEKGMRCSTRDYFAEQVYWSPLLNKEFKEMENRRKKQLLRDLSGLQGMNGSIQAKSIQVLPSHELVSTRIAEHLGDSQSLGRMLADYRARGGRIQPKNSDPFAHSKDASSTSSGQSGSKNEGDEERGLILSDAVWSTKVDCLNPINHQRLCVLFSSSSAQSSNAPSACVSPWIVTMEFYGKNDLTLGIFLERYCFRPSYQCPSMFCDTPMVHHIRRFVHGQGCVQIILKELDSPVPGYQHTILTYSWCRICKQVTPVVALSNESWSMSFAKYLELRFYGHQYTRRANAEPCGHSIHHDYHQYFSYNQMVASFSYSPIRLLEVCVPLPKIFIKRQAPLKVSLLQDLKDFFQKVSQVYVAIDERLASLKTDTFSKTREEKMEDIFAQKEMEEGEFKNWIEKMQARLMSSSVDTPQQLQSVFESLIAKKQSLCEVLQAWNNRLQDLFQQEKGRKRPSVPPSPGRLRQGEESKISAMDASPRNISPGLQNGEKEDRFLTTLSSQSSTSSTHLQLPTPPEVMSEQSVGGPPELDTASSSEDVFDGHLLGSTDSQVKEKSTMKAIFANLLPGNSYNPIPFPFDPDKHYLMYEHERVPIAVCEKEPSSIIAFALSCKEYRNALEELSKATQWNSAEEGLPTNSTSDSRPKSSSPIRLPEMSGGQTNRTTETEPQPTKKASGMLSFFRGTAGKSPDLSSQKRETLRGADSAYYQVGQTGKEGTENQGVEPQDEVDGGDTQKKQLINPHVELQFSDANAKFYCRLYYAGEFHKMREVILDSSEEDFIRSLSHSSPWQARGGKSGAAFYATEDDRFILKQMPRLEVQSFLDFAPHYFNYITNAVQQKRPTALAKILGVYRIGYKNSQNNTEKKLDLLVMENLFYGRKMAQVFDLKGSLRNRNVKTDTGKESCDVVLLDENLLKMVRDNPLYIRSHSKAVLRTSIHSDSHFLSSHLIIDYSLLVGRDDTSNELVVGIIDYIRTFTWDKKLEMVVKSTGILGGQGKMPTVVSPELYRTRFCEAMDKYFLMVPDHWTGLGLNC
Chain of MARK2 (Q7KZI7 whole entry): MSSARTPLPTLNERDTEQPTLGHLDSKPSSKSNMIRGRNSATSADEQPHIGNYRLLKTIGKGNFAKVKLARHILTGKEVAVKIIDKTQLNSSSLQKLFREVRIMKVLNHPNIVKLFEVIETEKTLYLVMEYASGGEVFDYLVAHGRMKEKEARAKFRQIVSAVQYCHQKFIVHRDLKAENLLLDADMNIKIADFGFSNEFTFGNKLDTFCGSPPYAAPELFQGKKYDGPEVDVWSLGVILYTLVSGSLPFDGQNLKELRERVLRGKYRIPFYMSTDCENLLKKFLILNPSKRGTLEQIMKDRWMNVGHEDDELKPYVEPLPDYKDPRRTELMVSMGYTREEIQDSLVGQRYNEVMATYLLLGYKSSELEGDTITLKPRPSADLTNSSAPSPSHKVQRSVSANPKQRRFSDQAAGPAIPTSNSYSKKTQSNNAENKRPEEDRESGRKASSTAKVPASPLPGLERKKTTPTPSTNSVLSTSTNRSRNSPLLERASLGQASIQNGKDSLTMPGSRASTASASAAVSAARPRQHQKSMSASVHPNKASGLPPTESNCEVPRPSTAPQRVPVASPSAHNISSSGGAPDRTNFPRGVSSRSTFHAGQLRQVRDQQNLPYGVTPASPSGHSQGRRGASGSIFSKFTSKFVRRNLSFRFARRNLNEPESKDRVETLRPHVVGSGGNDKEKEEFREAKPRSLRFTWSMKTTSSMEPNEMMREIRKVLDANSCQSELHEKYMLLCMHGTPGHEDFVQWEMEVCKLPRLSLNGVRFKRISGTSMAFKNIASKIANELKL

inhibition at 1 µM [1] | inhibition at 1 µM [3] | inhibition at 1 µM [4] | inhibition at 1 µM [8] | inhibition at 1 µM [9] | inhibition at 1 µM [10] | inhibition at 1 µM [12] | inhibition at 1 µM [13] | inhibition at 1 µM [14] | Structure (SMILES) | Percent inhibition of kinase labeling by ATP-biotin [1] | Percent inhibition of kinase labeling by ATP-biotin [2] | Percent inhibition of kinase labeling by ATP-biotin [3] | Percent inhibition of kinase labeling by ATP-biotin [4] | Percent inhibition of kinase labeling by ATP-biotin [5] | Percent inhibition of kinase labeling by ATP-biotin [6] | EC50 [7, 16] | Percent inhibition of kinase labeling by ATP-biotin [8] | Percent inhibition of kinase labeling by ATP-biotin [9] | Percent inhibition of kinase labeling by ATP-biotin [11] | on-/off-pathway activity in cellular pathway profiling [15] | other results
– | – | – | – | – | – | – | – | – | CCC(=O)Nc1cccc(C(=O)Nc2ccc(Nc3nccc(-c4cccnc4)n3)cc2)c1 [JNK-IN-6] | 13.4% | 4.9% | 9.9% | 24.4% | 35.8% | 11.6% | 1900 nM | 16.8% | 3% | 27.3% | – | Percent inhibition of kinase labeling by ATP-biotin [10]: 8.9%; Percent inhibition of kinase labeling by ATP-biotin [12]: 6.8%; Percent inhibition of kinase labeling by ATP-biotin [13]: 12%; Percent inhibition of kinase labeling by ATP-biotin [14]: 28%
20.8% | 68.2% | -8.2% | 99.3% | 84.4% | 27.8% | 40.7% | 40.9% | -76% | CN(C)C/C=C/C(=O)Nc1cccc(C(=O)Nc2ccc(Nc3nccc(-c4c(-c5ccccc5)nn5ccccc45)n3)cc2)c1 [JNK-IN-11] | – | 53.8% | – | – | 34.1% | −33.9% | – | – | – | 99.8% | off-pathway activity | –
9.6% | -8% | 10% | 18.7% | -7.8% | -23.7% | 10.6% | 4.9% | -0.8% | Cc1cc(NC(=O)c2cccc(NC(=O)/C=C/CN(C)C)c2)ccc1Nc1nccc(-c2cccnc2)n1 [JNK-IN-8] | – | −11.3% | – | – | 2.9% | −17.1% | – | – | – | 98.7% | only on-pathway activity | EC50 ([7]; Homo sapiens, A-375, read-out: p-c-Jun EC50 (nM) A375): 338 nM
– | – | – | – | – | – | – | – | – | CN(C)C/C=C/C(=O)Nc1cccc(C(=O)Nc2ccc(Nc3nccc(/C(C#N)=C4\Nc5ccccc5S4)n3)cc2)c1 [JNK-IN-12] | −41.1% | −20.9% | −23% | −97% | −10.8% | −91% | 134 nM | −11.4% | −40.2% | 98.6% | only on-pathway activity | Percent inhibition of kinase labeling by ATP-biotin [10]: 6.2%; Percent inhibition of kinase labeling by ATP-biotin [12]: −7.7%; Percent inhibition of kinase labeling by ATP-biotin [13]: −79%; Percent inhibition of kinase labeling by ATP-biotin [14]: −94.1%

Structure (SMILES) | inhibition at 1 µM [1] | inhibition at 1 µM [3] | inhibition at 1 µM [4] | inhibition at 1 µM [8] | inhibition at 1 µM [9] | inhibition at 1 µM [10] | inhibition at 1 µM [12] | inhibition at 1 µM [13] | inhibition at 1 µM [14] | Percent inhibition of kinase labeling by ATP-biotin [1] | Percent inhibition of kinase labeling by ATP-biotin [2] | Percent inhibition of kinase labeling by ATP-biotin [3] | Percent inhibition of kinase labeling by ATP-biotin [4] | Percent inhibition of kinase labeling by ATP-biotin [5] | Percent inhibition of kinase labeling by ATP-biotin [6] | EC50 [7, 16] | Percent inhibition of kinase labeling by ATP-biotin [8] | Percent inhibition of kinase labeling by ATP-biotin [9] | Percent inhibition of kinase labeling by ATP-biotin [11] | on-/off-pathway activity in cellular pathway profiling [15] | other results
CN(C)C/C=C/C(=O)Nc1cccc(C(=O)Nc2ccc(Nc3nccc(-c4cccnc4)n3)cc2)c1 [JNK-IN-7] | 23.6% | 20.9% | -11.9% | 91.8% | 15.5% | 7% | 20.4% | 13.6% | -7% | – | 19.1% | – | – | 13.1% | −21.5% | – | – | – | 99.7% | only on-pathway activity | –
